Assay results as given in the NIST ThermoML archive (doi:10.1021/acs.jced.8b01048).

Assay: xn = mol fraction of the nth substance listed
Details: 100 kPa, Liquid, Vibrating tube method

CC(=O)[O-].CCn1cc[n+](C)c1 [1-ethyl-3-methylimidazolium acetate] + C[S+](C)[O-]
mass density [kg/m3]
Details	293.15 K	303.15 K	313.15 K	323.15 K	333.15 K	343.15 K	353.15 K	363.15 K	373.15 K
x2 = 0	1101.7	1095.6	1089.6	1083.7	1077.7	1071.8	1065.9	1060	1054.2
x2 = 0.053	1102.4	1096.3	1090.3	1084.2	1078.1	1072	1066.1	1060.1	1054.1
x2 = 0.103	1103	1096.9	1090.8	1084.5	1078.3	1072.2	1066.1	1060	1054
x2 = 0.196	1103.8	1097.5	1091.2	1084.8	1078.4	1072.2	1065.9	1059.8	1053.6
x2 = 0.301	1104.9	1098.4	1091.8	1085.2	1078.7	1072.1	1065.6	1059.3	1052.9
x2 = 0.401	1105.8	1099	1092.2	1085.3	1078.7	1071.8	1065.2	1058.4	1051.8
x2 = 0.501	1106.6	1099.5	1092.4	1085.4	1078.3	1071.3	1064.4	1057.5	1050.6
x2 = 0.6	1107.4	1099.9	1092.5	1085.1	1077.8	1070.4	1063.1	1055.8	1048.5
x2 = 0.686	1107.6	1099.9	1092	1084.3	1076.6	1068.9	1061.2	1053.6	1046
x2 = 0.802	1107.2	1098.8	1090.4	1082	1073.7	1065.4	1057.1	1048.8	1040.4
x2 = 0.899	1105.4	1096.3	1087.3	1078.3	1069.3	1060.3	1051.3	1042.3	1033.2
